BindingDB's records for doi:10.7270/Q2KP80J0 (The Scripps Research Institute Molecular Screening Center, 2007)

Target: T1, Ephrin type-B receptor 4 (Homo sapiens, UniProt P54760)
T1 sequence (P54760 whole entry): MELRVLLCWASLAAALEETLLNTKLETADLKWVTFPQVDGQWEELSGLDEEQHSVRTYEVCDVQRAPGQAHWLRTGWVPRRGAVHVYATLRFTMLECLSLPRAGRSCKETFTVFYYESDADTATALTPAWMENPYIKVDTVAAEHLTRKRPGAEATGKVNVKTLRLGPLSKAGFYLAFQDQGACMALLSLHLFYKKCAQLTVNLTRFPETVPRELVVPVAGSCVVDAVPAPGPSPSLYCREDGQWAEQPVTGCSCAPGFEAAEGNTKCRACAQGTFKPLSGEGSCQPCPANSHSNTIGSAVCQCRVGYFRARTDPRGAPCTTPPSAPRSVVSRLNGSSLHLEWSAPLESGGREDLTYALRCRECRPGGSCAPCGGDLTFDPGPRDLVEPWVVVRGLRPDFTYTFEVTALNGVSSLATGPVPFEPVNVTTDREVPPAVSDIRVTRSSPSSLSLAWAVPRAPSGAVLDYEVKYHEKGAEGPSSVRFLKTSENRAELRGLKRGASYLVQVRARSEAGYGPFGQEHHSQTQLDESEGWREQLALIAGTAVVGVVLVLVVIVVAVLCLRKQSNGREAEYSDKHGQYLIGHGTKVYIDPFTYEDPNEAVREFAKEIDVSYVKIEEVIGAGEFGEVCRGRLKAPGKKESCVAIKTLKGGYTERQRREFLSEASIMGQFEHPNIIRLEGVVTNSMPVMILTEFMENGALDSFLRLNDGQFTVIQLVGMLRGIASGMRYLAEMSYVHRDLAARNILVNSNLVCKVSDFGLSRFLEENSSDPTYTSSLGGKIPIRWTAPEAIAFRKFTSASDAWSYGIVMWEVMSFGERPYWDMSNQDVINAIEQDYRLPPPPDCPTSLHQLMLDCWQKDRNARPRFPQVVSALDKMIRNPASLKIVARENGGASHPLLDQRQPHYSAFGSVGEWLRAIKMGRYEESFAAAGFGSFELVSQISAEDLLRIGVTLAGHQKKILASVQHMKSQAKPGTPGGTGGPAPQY
Assay: blockers of EphB4 ligand binding – biochemical, TNYL-RAW peptide displacement, dose response (AID 835)

`Cc1cc(NC(c2ccc(Cl)cc2)c2ccc3cccnc3c2O)no1` (centres undefined) [7-[(4-chlorophenyl)-[(5-methyl-1,2-oxazol-3-yl)amino]methyl]quinolin-8-ol] and `O=C(Nc1nc2n(n1)C(c1ccc(Cl)cc1)CC(c1ccc(Cl)cc1)N2)c1ccco1` (centres undefined) [SMR000045014] cannot be ordered by IC50: > 79.4 µM for the first, > 79.4 µM for the second.

`CCOc1ccc(C(CCc2ccccc2)NC(=O)c2ccccc2F)cc1OCC` (centres undefined) [MLS000544814] and `CCOc1ccc(NC(=O)C(C)Oc2ccccc2C(=O)Nc2ccc(C)c(Cl)c2)cc1` (centres undefined) [MLS000581136] cannot be ordered by IC50: > 79.4 µM for the first, > 79.4 µM for the second.

`O=C1CCCc2c1[nH]c1ccccc21` and `CC(=O)c1ccc(-n2nnnc2SCC(=O)N2CCc3ccccc3C2)cc1` [1-(3,4-dihydro-1H-isoquinolin-2-yl)-2-[[1-(4-ethanoylphenyl)-1,2,3,4-tetrazol-5-yl]sulfanyl]ethanone] cannot be ordered by IC50: > 79.4 µM for the first, > 79.4 µM for the second.

`CC(C)(C)C1CCC2(CC1)SCC(=O)N2c1ccccc1` (centres undefined) and `Cc1cc(C(=O)CSc2nnc(Nc3ccccc3F)s2)c(C)n1CC1CCCO1` (centres undefined) [1-[2,5-dimethyl-1-(2-oxolanylmethyl)-3-pyrrolyl]-2-[[5-(2-fluoroanilino)-1,3,4-thiadiazol-2-yl]thio]ethanone] cannot be ordered by IC50: > 79.4 µM for the first, > 79.4 µM for the second.

`Cc1ccc(N2C(=O)C(O)(C(F)(F)F)C3=C2CC(C)(C)CC3=O)cc1C` (centres undefined) [1-(3,4-dimethylphenyl)-3-hydroxy-6,6-dimethyl-3-(trifluoromethyl)-3,5,6,7-tetrahydro-1H-indole-2,4-dione] and `Cc1cc(C)c(S(=O)(=O)NCc2cn3c(C)csc3n2)cc1C` [2,4,5-trimethyl-N-[(3-methyl-6-imidazo[2,1-b]thiazolyl)methyl]benzenesulfonamide] cannot be ordered by IC50: > 79.4 µM for the first, > 79.4 µM for the second.

`O=C(c1cnc2ccc(S(=O)(=O)N3CCC4(CC3)OCCO4)cc2c1O)N1CCOCC1` [6-(1,4-dioxa-8-azaspiro[4.5]dec-8-ylsulfonyl)-3-(morpholin-4-ylcarbonyl)quinolin-4(1H)-one] and `CCc1cccc2c(C#N)cn(CC(=O)N3CCOCC3)c12` [7-ethyl-1-[2-(4-morpholinyl)-2-oxoethyl]-1H-indole-3-carbonitrile] cannot be ordered by IC50: > 79.4 µM for the first, > 79.4 µM for the second.

`CC(=O)c1ccc(N2CCN(C(=O)c3ccc(Br)cc3)CC2)c(F)c1` [1-[4-[4-(4-bromobenzoyl)piperazin-1-yl]-3-fluorophenyl]ethanone] and `Cc1cc(=O)oc(C)c1C(=O)OCC(=O)c1ccc(Cl)cc1` [2,4-Dimethyl-6-oxo-6H-pyran-3-carboxylic acid 2-(4-chloro-phenyl)-2-oxo-ethyl ester] cannot be ordered by IC50: > 79.4 µM for the first, > 79.4 µM for the second.

`Cn1cc(Cl)c(C(=O)OCC(=O)Nc2ccccc2)n1` [(2-anilino-2-oxoethyl) 4-chloro-1-methylpyrazole-3-carboxylate] and `O=C(COC(=O)C(Cc1ccccc1)NC(=O)c1ccco1)NC1CC1` (centres undefined) [2-(2-furoylamino)-3-phenyl-propionic acid [2-(cyclopropylamino)-2-keto-ethyl] ester] cannot be ordered by IC50: > 79.4 µM for the first, > 79.4 µM for the second.

`CCCCNC(=O)C1C2C=CC3(CN(Cc4ccccc4Cl)C(=O)C13)O2` (centres undefined) [MLS000044497] and `CCCc1nnc(NC(=O)CN2C(=O)c3ccccc3S2(=O)=O)s1` [2-(1,1-dioxido-3-oxo-1,2-benzisothiazol-2(3H)-yl)-N-(5-propyl-1,3,4-thiadiazol-2-yl)acetamide] cannot be ordered by IC50: > 79.4 µM for the first, > 79.4 µM for the second.

`O=C(/C=C/c1cccc([N+](=O)[O-])c1)NCCN1CCOCC1` [(E)-N-(2-morpholin-4-ylethyl)-3-(3-nitrophenyl)prop-2-enamide] and `COc1cccc(C(C#N)N2CCOCC2)c1` (centres undefined) [2-(3-methoxyphenyl)-2-(4-morpholinyl)acetonitrile] cannot be ordered by IC50: > 79.4 µM for the first, > 79.4 µM for the second.

`Cc1cc(N2CCN(c3ccccn3)CC2)n2cc(-c3ccccc3)nc2n1` [7-methyl-2-phenyl-5-(4-pyridin-2-ylpiperazin-1-yl)imidazo[1,2-a]pyrimidine] and `O=c1c2ccccc2nc(-c2ccoc2)n1CCc1ccccc1` [2-(3-furanyl)-3-(2-phenylethyl)-4-quinazolinone] cannot be ordered by IC50: > 79.4 µM for the first, > 79.4 µM for the second.

`CCCc1nnc(SCc2ccc(C(=O)OC)o2)n1N` [5-[[(4-amino-5-propyl-1,2,4-triazol-3-yl)thio]methyl]-2-furancarboxylic acid methyl ester] and `O=C(CN1C(=O)NC2(CCCC2)C1=O)NCCC1=CCCCC1` [2-[2,4-bis(oxidanylidene)-1,3-diazaspiro[4.4]nonan-3-yl]-N-[2-(cyclohexen-1-yl)ethyl]ethanamide] cannot be ordered by IC50: > 79.4 µM for the first, > 79.4 µM for the second.

`CN(c1ccccc1C(=O)Nc1ccccc1C(=O)NCc1ccco1)S(C)(=O)=O` [MLS000049900] and `O=C(O)/C(=C\c1ccco1)NC(=O)c1cccc2ccccc12` [(E)-3-(furan-2-yl)-2-(naphthalene-1-carbonylamino)prop-2-enoic acid] cannot be ordered by IC50: > 79.4 µM for the first, > 79.4 µM for the second.

First: Cn1c(=O)c(NCCO)c2c3c(cccc31)C(=O)c1ccccc1-2 [1-(2-Hydroxy-ethylamino)-3-methyl-3H-naphtho[1,2,3-de]quinoline-2,7-dione]
Second: O=C(CC(O)(c1ccccc1)C(F)(F)F)c1cccs1 (centres undefined) [4,4,4-trifluoro-3-hydroxy-3-phenyl-1-(2-thienyl)-1-butanone]
The IC50 of the first is lower: 8.4 µM for the first, > 79.4 µM for the second.

`O=C(NCCCN1CCCC1=O)NC12CC3CC(CC(C3)C1)C2` [MLS000050547] was tested, and the IC50 was > 79.4 µM.
